Among the data in ChEMBL document CHEMBL1138642, “In vitro advanced antimycobacterial screening of cobalt(II) and copper(II) complexes of fluorinated isonicotinoylhydrazones” (2004) are MBC and MIC values, retold here.

Assay [1] concerns Mycobacterium tuberculosis. The experiment in a line: Minimum bactericidal required against isoniazid resistant Mycobacterium tuberculosis was determined in monolayers of mouse bone marrow macrophages. It counts as functional.
Assay [2] concerns Mycobacterium tuberculosis. The experiment in a line: Minimum inhibition concentration required against isoniazid resistant Mycobacterium tuberculosis was determined in monolayers of mouse bone marrow macrophages. The assay is classed as functional.

On to `NNC(=O)c1ccncc1` [ISONIAZID], for which the MBC in assay [1] is over 1.6 µg/mL. The compound also yielded an MIC in assay [2] of over 0.2 µg/mL.
